Among the data in article PMC5916922, “The Bexsero Neisseria meningitidis serogroup B vaccine antigen NHBA is a high-affinity chondroitin sulfate binding protein” (Scientific Reports, 2018) are Kd values, retold here.

Data set [1] relates to NHBA (Neisseria Heparin Binding Antigen), recombinant (Neisseria meningitidis MC58 (serogroup B)). As to the kind of experiment: SPR. The settings on record: SPR: Biacore T200, CM5 chip, 1:5 dilution series 1 nM-100 uM, single cycle kinetics; ITC: nano-ITC, PBS-NHBA control (PBS implied); pH and temperature not ….
Data set [2] shares this test system. As to the kind of experiment: ITC. As to conditions: SPR: Biacore T200, CM5 chip, 1:5 dilution series 1 nM-100 uM, single cycle kinetics; ITC: nano-ITC, PBS-NHBA control (PBS implied); pH and temperature not …. In general terms: In SPR one partner is held on a chip, and binding of the other changes the refractive index at the surface.
The target of data set [3] is T1, NHBA (Neisseria Heparin Binding Antigen), recombinant (Neisseria meningitidis, UniProt Q7DD37).
T1 construct: pET19b, His-tagged; forward primer codes from SPDVK (lipoprotein signal peptide removed); immobilised by amine coupling on CM5 chip
The data set can be described thus: SPR, single cycle kinetics, immobilised NHBA.

Setting [4] is: read-out: KD (μM) (mean ± standard deviation); recombinant NHBA amine-coupled to CM5 chip; glycan in flow.
Setting [5] is: recombinant NHBA amine-coupled to CM5 chip; glycan in flow.

Counter-ions that a name gives are not always drawn. Like-named read-outs stand apart in the source and are kept apart here.

T1 sequence (Q7DD37 25-488): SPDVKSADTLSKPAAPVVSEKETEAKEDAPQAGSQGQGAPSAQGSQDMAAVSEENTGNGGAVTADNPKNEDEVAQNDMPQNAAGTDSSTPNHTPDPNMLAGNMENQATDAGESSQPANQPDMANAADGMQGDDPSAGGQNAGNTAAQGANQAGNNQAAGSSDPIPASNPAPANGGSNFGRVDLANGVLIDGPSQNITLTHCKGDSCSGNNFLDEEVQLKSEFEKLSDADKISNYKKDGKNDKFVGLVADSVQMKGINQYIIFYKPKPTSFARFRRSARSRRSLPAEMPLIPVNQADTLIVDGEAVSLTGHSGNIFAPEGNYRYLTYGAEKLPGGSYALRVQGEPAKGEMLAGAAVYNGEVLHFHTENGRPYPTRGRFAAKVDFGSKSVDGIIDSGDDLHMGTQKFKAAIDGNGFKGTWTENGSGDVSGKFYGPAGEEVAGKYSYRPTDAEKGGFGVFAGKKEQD

By Kd is commonly meant a measure of binding affinity in units of concentration. Regarding “503 bp PCR fragment of N. meningitidis genomic DNA”, the Kd in data set [1] amounted to 71 nM; in data set [2] it was 3.33 µM.

With `CC(=O)N[C@H]1C(O)O[C@H](CO)[C@@H](O[C@@H]2O[C@H](CO)[C@H](O[C@H]3O[C@H](CO)[C@H](O)[C@H](O)[C@H]3O)[C@H](O)[C@H]2O)[C@@H]1O` (stereo partly drawn) [2E, P1 antigen], the equilibrium dissociation constant (Kd) in data set [3] (setting [4]) is 14.9 ± 3.48 µM.

For the molecule `CC(=O)N[C@H]1C(O)O[C@H](CO)[C@@H](O[C@@H]2O[C@@H](C)[C@@H](O)[C@@H](O)[C@@H]2O)[C@@H]1O[C@@H]1O[C@H](CO)[C@H](O)[C@H](OS(=O)(=O)O)[C@H]1O` (stereo partly drawn) [8A, Sulfo Lewis A], the Kd in data set [3] (setting [4]) amounted to 33.4 ± 2.54 µM.

Consider `O=S(=O)(O)O[C@@H]1[C@H](O[C@H]2O[C@@H]3CO[C@H]([C@H]2O)[C@H]3O[C@@H]2O[C@H](CO)[C@H](O)[C@H](O[C@H]3O[C@@H]4CO[C@@H]([C@H]4O)[C@H]3O)[C@H]2O)[C@@H](O)C(O)O[C@@H]1CO` (stereo partly drawn) [12B, Neocarratetraose-4^1-O-sulfate (Na+)], for which the Kd in data set [3] (setting [4]) is 0.446 ± 0.151 µM.

Turning to `CC(=O)N[C@H]1C(O)O[C@H](CO)[C@@H](O)[C@@H]1O[C@@H]1OC(C(=O)O)=C[C@H](O)[C@H]1O` (stereo partly drawn) [13E, Hyaluronan disaccharide ΔDi-HA], in data set [3] (setting [4]), the dissociation constant (Kd) worked out at 0.13 ± 0.03 µM.

As to `CC(=O)N[C@H]1C(O)O[C@H](CO)[C@H](OS(=O)(=O)O)[C@@H]1O[C@@H]1OC(C(=O)O)=C[C@H](O)[C@H]1OS(=O)(=O)O` (stereo partly drawn) [chondroitin disaccharide sulfated at 2 of GlcA/IdoA and 4 of GalNAc], in data set [3] (setting [5]), the dissociation constant (Kd) came out at 0.5 µM.

Consider `CC(=O)N[C@H]1C(O)O[C@H](COS(=O)(=O)O)[C@H](O)[C@@H]1O[C@@H]1OC(C(=O)O)=C[C@H](O)[C@H]1OS(=O)(=O)O` (stereo partly drawn) [chondroitin sulfate type D disaccharide], for which the Kd in data set [3] (setting [5]) turned out to be 0.0095 µM.

As for `O=P(O)(O)OC[C@H]1O[C@@H](O)[C@H](O)[C@@H](O)[C@@H]1O` [compound 46, β-Glc6P], the Kd in data set [3] (recombinant NHBA amine-coupled to CM5 chip; glycan in flow; read-out: KD (μM) (mean ± standard deviation)) is 0.056 ± 0.025 µM.
